The supplement of paper PMC10307832

What was measured:
Test in all cases: relative viability (nuclei count vs DMSO), 5 days (fraction); higher = more cells survive
NCI-H1944 = tested on: NCI-H1944
Summary of the method: (§1)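 Cells from lung cancer lines were seeded into 1536-well plates and, one day later, dosed by pin tool. Treatments were either a single drug or a fixed dose of an anchor drug with five library-drug doses (not always all listed) in √10 steps. After 5 days, nuclei were stained in a one-step fixation (final 0.05% Triton X-100, 1% formaldehyde, 1 ug/ml Hoechst) and counted on 4× images, and relative viability is the treated-to-vehicle nuclei ratio, as the median of duplicate plates.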

NCI-H2170 = tested on: NCI-H2170
Summary of the method: as §1

NCI-H2087 = tested on: NCI-H2087
Summary of the method: as §1

NCI-H3122 = tested on: NCI-H3122
Summary of the method: as §1

NCI-H1651 = tested on: NCI-H1651
Summary of the method: as §1

NCI-H2405 = tested on: NCI-H2405
Summary of the method: as §1

ChaGo-K-1 = tested on: ChaGo-K-1
Summary of the method: as §1

HCC-366 = tested on: HCC-366
Summary of the method: as §1

NCI-H1755 = tested on: NCI-H1755
Summary of the method: as §1

NCI-H2228 = tested on: NCI-H2228
Summary of the method: as §1

RERF-LC-KJ = tested on: RERF-LC-KJ
Summary of the method: as §1

NCI-H460 = tested on: NCI-H460
Summary of the method: as §1

UMC-11 = tested on: UMC-11
Summary of the method: as §1

LOU-NH91 = tested on: LOU-NH91
Summary of the method: as §1

NCI-H1793 = tested on: NCI-H1793
Summary of the method: as §1

NCI-H1395 = tested on: NCI-H1395
Summary of the method: as §1

LU99A = tested on: LU99A
Summary of the method: as §1

LC-2-ad = tested on: LC-2-ad
Summary of the method: as §1

CAL-12T = tested on: CAL-12T
Summary of the method: as §1

HCC-78 = tested on: HCC-78
Summary of the method: as §1

ABC-1 = tested on: ABC-1
Summary of the method: as §1

PC-3 [JPC-3] = tested on: PC-3 [JPC-3]
Summary of the method: as §1

`COc1cc2nccc(Oc3ccc(NC(=O)Nc4cc(C)on4)c(Cl)c3)c2cc1OC` [Tivozanib] + O=C(CCCCCCC(=O)Nc1ccccc1)NO [Vorinostat] (partner 1 µM) gave a relative viability (NCI-H1944; first compound 0.005 µM) of 0.443, a relative viability (NCI-H1944; first compound 0.01581 µM) of 0.59 and a relative viability (NCI-H1944; first compound 0.05 µM) of 0.534. For the same compound, the relative viability (NCI-H1944; first compound 0.1581 µM) was 0.5, the relative viability (NCI-H1944; first compound 0.5 µM) was 0.609 and the relative viability (NCI-H2170; first compound 0.005 µM) was 0.74. It also gave a relative viability (NCI-H2170; first compound 0.01581 µM) of 0.782, a relative viability (NCI-H2170; first compound 0.05 µM) of 0.856 and a relative viability (NCI-H2170; first compound 0.5 µM) of 0.816. For the same compound, the relative viability (NCI-H2087; first compound 0.005 µM) was 0.917, the relative viability (NCI-H2087; first compound 0.01581 µM) was 0.685 and the relative viability (NCI-H2087; first compound 0.05 µM) was 0.663. For the same compound, the relative viability (NCI-H2087; first compound 0.1581 µM) was 0.698, the relative viability (NCI-H2087; first compound 0.5 µM) was 0.428 and the relative viability (NCI-H3122; first compound 0.005 µM) was 0.644. It also gave a relative viability (NCI-H3122; first compound 0.01581 µM) of 1.12, a relative viability (NCI-H3122; first compound 0.05 µM) of 0.97 and a relative viability (NCI-H3122; first compound 0.1581 µM) of 1.03. It also gave a relative viability (NCI-H3122; first compound 0.5 µM) of 0.822, a relative viability (NCI-H1651; first compound 0.005 µM) of 0.444 and a relative viability (NCI-H1651; first compound 0.01581 µM) of 0.53. For the same compound, the relative viability (NCI-H1651; first compound 0.05 µM) was 0.619, the relative viability (NCI-H1651; first compound 0.1581 µM) was 0.519 and the relative viability (NCI-H1651; first compound 0.5 µM) was 0.471. The relative viability (NCI-H2405; first compound 0.005 µM) was 0.376, the relative viability (NCI-H2405; first compound 0.01581 µM) was 1.03 and the relative viability (NCI-H2405; first compound 0.05 µM) was 1.05. It also gave a relative viability (NCI-H2405; first compound 0.1581 µM) of 0.854, a relative viability (NCI-H2405; first compound 0.5 µM) of 0.788 and a relative viability (ChaGo-K-1; first compound 0.005 µM) of 0.692. The relative viability (ChaGo-K-1; first compound 0.01581 µM) was 0.727, the relative viability (ChaGo-K-1; first compound 0.05 µM) was 0.773 and the relative viability (ChaGo-K-1; first compound 0.1581 µM) was 0.756. The relative viability (ChaGo-K-1; first compound 0.5 µM) was 0.63, the relative viability (HCC-366; first compound 0.005 µM) was 0.333 and the relative viability (HCC-366; first compound 0.01581 µM) was 0.323. It also gave a relative viability (HCC-366; first compound 0.05 µM) of 0.312, a relative viability (HCC-366; first compound 0.1581 µM) of 0.305 and a relative viability (HCC-366; first compound 0.5 µM) of 0.244. The relative viability (NCI-H1755; first compound 0.005 µM) was 0.742, the relative viability (NCI-H1755; first compound 0.01581 µM) was 0.786 and the relative viability (NCI-H1755; first compound 0.05 µM) was 0.739. For the same compound, the relative viability (NCI-H1755; first compound 0.1581 µM) was 0.706, the relative viability (NCI-H1755; first compound 0.5 µM) was 0.587 and the relative viability (NCI-H2228; first compound 0.005 µM) was 0.606. The relative viability (NCI-H2228; first compound 0.01581 µM) was 0.723, the relative viability (NCI-H2228; first compound 0.05 µM) was 0.761 and the relative viability (NCI-H2228; first compound 0.1581 µM) was 0.599. It also gave a relative viability (NCI-H2228; first compound 0.5 µM) of 0.626, a relative viability (RERF-LC-KJ; first compound 0.005 µM) of 0.621 and a relative viability (RERF-LC-KJ; first compound 0.01581 µM) of 0.616. For the same compound, the relative viability (RERF-LC-KJ; first compound 0.05 µM) was 0.734, the relative viability (RERF-LC-KJ; first compound 0.1581 µM) was 0.58 and the relative viability (RERF-LC-KJ; first compound 0.5 µM) was 0.593. For the same compound, the relative viability (NCI-H460; first compound 0.005 µM) was 0.651, the relative viability (NCI-H460; first compound 0.01581 µM) was 0.741 and the relative viability (NCI-H460; first compound 0.05 µM) was 0.748. The relative viability (NCI-H460; first compound 0.1581 µM) was 0.76, the relative viability (NCI-H460; first compound 0.5 µM) was 0.569 and the relative viability (UMC-11; first compound 0.005 µM) was 0.404. It also gave a relative viability (UMC-11; first compound 0.01581 µM) of 0.36, a relative viability (UMC-11; first compound 0.05 µM) of 0.349 and a relative viability (UMC-11; first compound 0.1581 µM) of 0.328. For the same compound, the relative viability (UMC-11; first compound 0.5 µM) was 0.329, the relative viability (LOU-NH91; first compound 0.005 µM) was 0.754 and the relative viability (LOU-NH91; first compound 0.01581 µM) was 0.952. The relative viability (LOU-NH91; first compound 0.05 µM) was 0.908, the relative viability (LOU-NH91; first compound 0.1581 µM) was 0.782 and the relative viability (LOU-NH91; first compound 0.5 µM) was 0.761. The relative viability (NCI-H1793; first compound 0.005 µM) was 0.606, the relative viability (NCI-H1793; first compound 0.01581 µM) was 0.706 and the relative viability (NCI-H1793; first compound 0.05 µM) was 0.778. It also gave a relative viability (NCI-H1793; first compound 0.5 µM) of 0.742, a relative viability (NCI-H1395; first compound 0.005 µM) of 0.476 and a relative viability (NCI-H1395; first compound 0.01581 µM) of 0.747. The relative viability (NCI-H1395; first compound 0.05 µM) was 0.932, the relative viability (NCI-H1395; first compound 0.1581 µM) was 0.58 and the relative viability (NCI-H1395; first compound 0.5 µM) was 0.424. For the same compound, the relative viability (LU99A; first compound 0.005 µM) was 0.43, the relative viability (LU99A; first compound 0.01581 µM) was 0.443 and the relative viability (LU99A; first compound 0.05 µM) was 0.526. For the same compound, the relative viability (LU99A; first compound 0.1581 µM) was 0.358, the relative viability (LU99A; first compound 0.5 µM) was 0.402 and the relative viability (LC-2-ad; first compound 0.005 µM) was 0.704. The relative viability (LC-2-ad; first compound 0.01581 µM) was 0.734, the relative viability (LC-2-ad; first compound 0.05 µM) was 0.694 and the relative viability (LC-2-ad; first compound 0.1581 µM) was 0.592. It also gave a relative viability (LC-2-ad; first compound 0.5 µM) of 0.34, a relative viability (CAL-12T; first compound 0.005 µM) of 0.842 and a relative viability (CAL-12T; first compound 0.01581 µM) of 0.744. The relative viability (CAL-12T; first compound 0.05 µM) was 0.891, the relative viability (CAL-12T; first compound 0.1581 µM) was 0.539 and the relative viability (CAL-12T; first compound 0.5 µM) was 0.473. For the same compound, the relative viability (HCC-78; first compound 0.005 µM) was 0.408, the relative viability (HCC-78; first compound 0.01581 µM) was 0.47 and the relative viability (HCC-78; first compound 0.05 µM) was 0.412. For the same compound, the relative viability (HCC-78; first compound 0.1581 µM) was 0.467, the relative viability (HCC-78; first compound 0.5 µM) was 0.363 and the relative viability (ABC-1; first compound 0.005 µM) was 0.694. It also gave a relative viability (ABC-1; first compound 0.01581 µM) of 1.11, a relative viability (ABC-1; first compound 0.05 µM) of 1.3 and a relative viability (ABC-1; first compound 0.1581 µM) of 0.926. It also gave a relative viability (ABC-1; first compound 0.5 µM) of 0.842, a relative viability (PC-3 [JPC-3]; first compound 0.01581 µM) of 0.814 and a relative viability (PC-3 [JPC-3]; first compound 0.05 µM) of 0.801. For the same compound, the relative viability (PC-3 [JPC-3]; first compound 0.1581 µM) was 0.691 and the relative viability (PC-3 [JPC-3]; first compound 0.5 µM) was 0.592.
